Results reported in paper PMC4467547 (Journal of Medicinal Chemistry, 2015).
Changes are numbered by the printed parent chain.

Tests used:
WT HDAC8 (Zn2+) = target: T1, WT HDAC8 (Zn2+) (Homo sapiens, UniProt Q9BY41); assay: HDAC8 time-course inhibition; assay type: biochemical
T1 sequence (Q9BY41 1-377): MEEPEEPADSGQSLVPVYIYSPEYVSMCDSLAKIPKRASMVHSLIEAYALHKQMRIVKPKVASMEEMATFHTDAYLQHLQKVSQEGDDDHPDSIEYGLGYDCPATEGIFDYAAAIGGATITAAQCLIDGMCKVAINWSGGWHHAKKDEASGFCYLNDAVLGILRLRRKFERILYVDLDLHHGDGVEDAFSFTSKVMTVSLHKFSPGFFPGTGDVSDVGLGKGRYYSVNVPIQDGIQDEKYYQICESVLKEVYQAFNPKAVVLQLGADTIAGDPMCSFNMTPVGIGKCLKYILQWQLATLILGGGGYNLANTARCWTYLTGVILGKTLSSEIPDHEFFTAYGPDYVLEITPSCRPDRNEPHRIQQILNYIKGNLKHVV

human plasma stability = assay type: in vitro ADME; conditions: 1 h, 37 °C
C153A HDAC8 = target: T2, C153A HDAC8 (Homo sapiens, UniProt Q9BY41, C153A); assay: HDAC8 time-course inhibition; conditions: SAHA 0-8 μM, SAHA-OBn 0-10 μM (Figure S8)
T2 sequence (Q9BY41 1-377 C153A): T1 sequence (Q9BY41 1-377) with C153A

reactivity with GSH = assay type: physicochemical; conditions: GSH 2 mM, 2 equiv, 50 mM HEPES pH 7.4, 2 h at 37 °C
HH (CTCL) cells = assay: MTS cell proliferation assay; assay type: cell-based
[1] = aqueous stability under simulated physiological conditions; assay type: physicochemical; conditions: 50 mM HEPES, pH 7.4, 37 °C, 24 h
[2] = stability in the presence of assay components BSA or trypsin; assay type: physicochemical; conditions: BSA (5 mg/mL) or trypsin (5 mg/mL), 37 °C, 2 h; data not shown
[3] = test system: tubulin acetylation in Jurkat cells; assay: western blot analysis of tubulin acetylation; assay type: cell-based; conditions: 6 and 20 μM, 4 h
[4] = test system: tubulin acetylation in HH cells; assay: western blot analysis of tubulin acetylation; assay type: cell-based; conditions: 6 and 20 μM, 4 h

O=C(CCCCCCC(=O)Nc1ccccc1)NO [SAHA, suberoylanilide hydroxamic acid, reference compound]
inhibition of HDAC8 (WT HDAC8 (Zn2+)): > 90% | percent parent compound remaining (human plasma stability): ~60% | inhibition of C153A HDAC8 (in words) (C153A HDAC8): susceptible to inhibition

O=C(CCCCCCC(=O)Nc1ccccc1)NOCc1ccccc1 [SAHA-OBn]
inhibition of HDAC8 activity (in words) (WT HDAC8 (Zn2+); inhibitor 2–10 μM): does not inhibit | reactivity with GSH (in words) (reactivity with GSH): no change in the HPLC chromatogram | effect on cell proliferation (in words) (HH (CTCL) cells; all cells studied (HH, Jurkat, NIH/3T3)): unaffected

CC1=C(C)C(=O)C(CONC(=O)CCCCCCC(=O)Nc2ccccc2)=C(C)C1=O [SAHA-TAP]
maximal rate constant for inactivation (WT HDAC8 (Zn2+); at saturating SAHA-TAP): 0.0013 s^–1 | time of activity loss on preincubation of enzyme with inhibitor (WT HDAC8 (Zn2+); preincubation, data not shown): ≤ 0.5 h | percent parent compound remaining (human plasma stability): Approximately 72% | stable to hydrolysis in the absence of thiols [1]: > 97% | reactivity with GSH (in words) (reactivity with GSH): reacts rapidly with GSH | stable in the presence of assay components [2]: > 95% | less potent than SAHA in cells (HH (CTCL) cells; HH and Jurkat cells): 3–4 fold | tubulin acetylation (western blot) [3]: increased tubulin acetylation | tubulin acetylation (western blot) [4]: increased tubulin acetylation
